According to US20140106968A1, “SUBSTITUTED 1,2,4-TRIAZINE-3,5-DIONES AS HERBICIDES” (E I Du Pont De Nemours and Company, priority 2012, published 2014):

Experiments:
Type in all cases: in vivo
[1] = tested on: pigweed (redroot pigweed, Amaranthus retroflexus); experiment: Test A greenhouse pre-/postemergence herbicide test, pigweed; conditions: 0 to 100 scale, 0 no effect, 100 complete control, approx. 10 days
Source text: (§1) Seeds of plant species selected from barnyardgrass (Echinochloa crus-galli), large (Lg) crabgrass (Digitaria sanguinalis), giant foxtail (Setaria faberii), morningglory (Ipomoea spp.), pigweed (redroot pigweed, Amaranthus retroflexus), velvetleaf (Abutilon theophrasti), winter wheat (Triticum aestivum), and corn (Zea mays) were planted into a blend of loam soil and sand and treated preemergence with a directed soil spray using test chemicals formulated in a non-phytotoxic solvent mixture which included a surfactant. At the same time these species were also treated with postemergence applications of test compounds formulated in the same manner. Plants ranged in height from 2 to 10 cm and were in the one- to two-leaf stage for the postemergence treatment. Treated plants and untreated controls were maintained in a greenhouse for approximately 10 days, after which time all treated plants were visually compared to untreated controls and visually evaluated for injury. Plant response ratings, summarized in Table A, are based on a 0 to 100 scale where 0 is no effect and 100 is complete control. A dash (-) response means no test result.

[2] = tested on: duck salad (Heteranthera limosa); experiment: Test B flooded paddy test, duck salad; conditions: scale of 0 to 100, 0 no effect, 100 complete control, 13 to 15 days
Protocol: (§2) Plant species in the flooded paddy test selected from rice (Oryza sativa), small-flower umbrella sedge (Cyperus difformis), duck salad (Heteranthera limosa), and barnyardgrass (Echinochloa crus-galli) were grown to the 2-leaf stage for testing. At time of treatment, test pots were flooded to 3 cm above the soil surface, treated by application of test compounds directly to the paddy water, and then maintained at that water depth for the duration of the test. Treated plants and controls were maintained in a greenhouse for 13 to 15 days, after which time all species were visually compared to controls and visually evaluated. Plant response ratings, summarized in Table B, are based on a scale of 0 to 100 where 0 is no effect and 100 is complete control. A dash (-) response means no test result.

[3] = tested on: large (Lg) crabgrass (Digitaria sanguinalis); experiment: Test A greenhouse pre-/postemergence herbicide test, large crabgrass; conditions: 0 to 100 scale, 0 no effect, 100 complete control, approx. 10 days
Source text: as §1

[4] = tested on: morningglory (Ipomoea spp.); experiment: Test A greenhouse pre-/postemergence herbicide test, morningglory; conditions: 0 to 100 scale, 0 no effect, 100 complete control, approx. 10 days
Source text: as §1

corn (Zea mays) = experiment: Test A greenhouse pre-/postemergence herbicide test, corn; conditions: 0 to 100 scale, 0 no effect, 100 complete control, approx. 10 days
Source text: as §1

[5] = tested on: small-flower umbrella sedge (Cyperus difformis); experiment: Test B flooded paddy test, small-flower umbrella sedge; conditions: scale of 0 to 100, 0 no effect, 100 complete control, 13 to 15 days
Protocol: as §2

[6] = tested on: barnyardgrass (Echinochloa crus-galli); experiment: Test A greenhouse pre-/postemergence herbicide test, barnyardgrass; conditions: 0 to 100 scale, 0 no effect, 100 complete control, approx. 10 days
Source text: as §1

[7] = tested on: velvetleaf (Abutilon theophrasti); experiment: Test A greenhouse pre-/postemergence herbicide test, velvetleaf; conditions: 0 to 100 scale, 0 no effect, 100 complete control, approx. 10 days
Source text: as §1

[8] = tested on: winter wheat (Triticum aestivum); experiment: Test A greenhouse pre-/postemergence herbicide test, winter wheat; conditions: 0 to 100 scale, 0 no effect, 100 complete control, approx. 10 days
Source text: as §1

[9] = tested on: giant foxtail (Setaria faberii); experiment: Test A greenhouse pre-/postemergence herbicide test, giant foxtail; conditions: 0 to 100 scale, 0 no effect, 100 complete control, approx. 10 days
Source text: as §1

rice (Oryza sativa) = experiment: Test B flooded paddy test, rice; conditions: scale of 0 to 100, 0 no effect, 100 complete control, 13 to 15 days
Protocol: as §2

[10] = tested on: barnyardgrass (Echinochloa crus-galli); experiment: Test B flooded paddy test, barnyardgrass; conditions: scale of 0 to 100, 0 no effect, 100 complete control, 13 to 15 days
Protocol: as §2

Cn1nc(C(=O)C2=C(O)CCCC2=O)c(=O)n(CCS(=O)(=O)CC2CC2)c1=O [Compound 3, 4-[2-[(cyclopropylmethyl)sulfonyl]ethyl]-6-[(2-hydroxy-6-oxo-1-cyclohexen-1-yl)carbonyl]-2-methyl-1,2,4-triazine-3,5(2H,4H)-dione]
Plant response rating, Pigweed ([1]; 31 g ai/ha Postemergence): 40 | Plant response rating, Pigweed ([1]; 31 g ai/ha Preemergence): 20 | Plant response rating, Pigweed ([1]; 125 g ai/ha Postemergence): 100 | Plant response rating, Pigweed ([1]; 125 g ai/ha Preemergence): 100 | Plant response rating, Ducksalad ([2]; 31 g ai/ha Flood): 0 | Plant response rating, Ducksalad ([2]; 62 g ai/ha Flood): 0 | Plant response rating, Ducksalad ([2]; 125 g ai/ha Flood): 0 | Plant response rating, Ducksalad ([2]; 250 g ai/ha Flood): 85 | Plant response rating, Crabgrass, Large ([3]; 31 g ai/ha Postemergence): 30 | Plant response rating, Crabgrass, Large ([3]; 31 g ai/ha Preemergence): 10 | Plant response rating, Crabgrass, Large ([3]; 125 g ai/ha Postemergence): 90 | Plant response rating, Crabgrass, Large ([3]; 125 g ai/ha Preemergence): 40 | Plant response rating, Morningglory ([4]; 31 g ai/ha Postemergence): 60 | Plant response rating, Morningglory ([4]; 125 g ai/ha Postemergence): 60 | Plant response rating, Morningglory ([4]; 125 g ai/ha Preemergence): 10 | Plant response rating, Corn (corn (Zea mays); 31 g ai/ha Postemergence): 0 | Plant response rating, Corn (corn (Zea mays); 31 g ai/ha Preemergence): 0 | Plant response rating, Corn (corn (Zea mays); 125 g ai/ha Postemergence): 0 | Plant response rating, Corn (corn (Zea mays); 125 g ai/ha Preemergence): 0 | Plant response rating, Sedge, Umbrella ([5]; 31 g ai/ha Flood): 0 | Plant response rating, Sedge, Umbrella ([5]; 62 g ai/ha Flood): 0 | Plant response rating, Sedge, Umbrella ([5]; 125 g ai/ha Flood): 50 | Plant response rating, Sedge, Umbrella ([5]; 250 g ai/ha Flood): 75 | Plant response rating, Barnyardgrass ([6]; 31 g ai/ha Postemergence): 20 | Plant response rating, Barnyardgrass ([6]; 31 g ai/ha Preemergence): 0 | Plant response rating, Barnyardgrass ([6]; 125 g ai/ha Postemergence): 90 | Plant response rating, Barnyardgrass ([6]; 125 g ai/ha Preemergence): 40 | Plant response rating, Velvetleaf ([7]; 31 g ai/ha Postemergence): 100 | Plant response rating, Velvetleaf ([7]; 31 g ai/ha Preemergence): 0 | Plant response rating, Velvetleaf ([7]; 125 g ai/ha Postemergence): 100 | Plant response rating, Velvetleaf ([7]; 125 g ai/ha Preemergence): 30 | Plant response rating, Wheat ([8]; 31 g ai/ha Postemergence): 0 | Plant response rating, Wheat ([8]; 31 g ai/ha Preemergence): 0 | Plant response rating, Wheat ([8]; 125 g ai/ha Postemergence): 30 | Plant response rating, Wheat ([8]; 125 g ai/ha Preemergence): 10 | Plant response rating, Foxtail, Giant ([9]; 31 g ai/ha Postemergence): 0 | Plant response rating, Foxtail, Giant ([9]; 31 g ai/ha Preemergence): 0 | Plant response rating, Foxtail, Giant ([9]; 125 g ai/ha Postemergence): 40 | Plant response rating, Foxtail, Giant ([9]; 125 g ai/ha Preemergence): 0 | Plant response rating, Rice (rice (Oryza sativa); 31 g ai/ha Flood): 0 | Plant response rating, Rice (rice (Oryza sativa); 62 g ai/ha Flood): 0 | Plant response rating, Rice (rice (Oryza sativa); 125 g ai/ha Flood): 0 | Plant response rating, Rice (rice (Oryza sativa); 250 g ai/ha Flood): 30 | Plant response rating, Barnyardgrass ([10]; 31 g ai/ha Flood): 0 | Plant response rating, Barnyardgrass ([10]; 62 g ai/ha Flood): 0 | Plant response rating, Barnyardgrass ([10]; 125 g ai/ha Flood): 0 | Plant response rating, Barnyardgrass ([10]; 250 g ai/ha Flood): 20

Cn1nc(C(=O)C2=C(O)CCCC2=O)c(=O)n(CCSCC2CC2)c1=O [Compound 4, 4-[2-[(cyclopropylmethyl)thio]ethyl]-6-[(2-hydroxy-6-oxo-1-cyclohexen-1-yl)carbonyl]-2-methyl-1,2,4-triazine-3,5(2H,4H)-dione]
Plant response rating, Pigweed ([1]; 31 g ai/ha Postemergence): 10 | Plant response rating, Pigweed ([1]; 31 g ai/ha Preemergence): 0 | Plant response rating, Pigweed ([1]; 125 g ai/ha Postemergence): 50 | Plant response rating, Pigweed ([1]; 125 g ai/ha Preemergence): 0 | Plant response rating, Ducksalad ([2]; 31 g ai/ha Flood): 0 | Plant response rating, Ducksalad ([2]; 62 g ai/ha Flood): 0 | Plant response rating, Ducksalad ([2]; 125 g ai/ha Flood): 50 | Plant response rating, Ducksalad ([2]; 250 g ai/ha Flood): 65 | Plant response rating, Crabgrass, Large ([3]; 31 g ai/ha Postemergence): 0 | Plant response rating, Crabgrass, Large ([3]; 31 g ai/ha Preemergence): 0 | Plant response rating, Crabgrass, Large ([3]; 125 g ai/ha Postemergence): 10 | Plant response rating, Crabgrass, Large ([3]; 125 g ai/ha Preemergence): 0 | Plant response rating, Morningglory ([4]; 31 g ai/ha Postemergence): 10 | Plant response rating, Morningglory ([4]; 31 g ai/ha Preemergence): 0 | Plant response rating, Morningglory ([4]; 125 g ai/ha Postemergence): 100 | Plant response rating, Morningglory ([4]; 125 g ai/ha Preemergence): 0 | Plant response rating, Corn (corn (Zea mays); 31 g ai/ha Postemergence): 0 | Plant response rating, Corn (corn (Zea mays); 31 g ai/ha Preemergence): 0 | Plant response rating, Corn (corn (Zea mays); 125 g ai/ha Postemergence): 0 | Plant response rating, Corn (corn (Zea mays); 125 g ai/ha Preemergence): 0 | Plant response rating, Sedge, Umbrella ([5]; 31 g ai/ha Flood): 0 | Plant response rating, Sedge, Umbrella ([5]; 62 g ai/ha Flood): 0 | Plant response rating, Sedge, Umbrella ([5]; 125 g ai/ha Flood): 50 | Plant response rating, Sedge, Umbrella ([5]; 250 g ai/ha Flood): 65 | Plant response rating, Barnyardgrass ([6]; 31 g ai/ha Postemergence): 0 | Plant response rating, Barnyardgrass ([6]; 31 g ai/ha Preemergence): 0 | Plant response rating, Barnyardgrass ([6]; 125 g ai/ha Postemergence): 10 | Plant response rating, Barnyardgrass ([6]; 125 g ai/ha Preemergence): 0 | Plant response rating, Velvetleaf ([7]; 31 g ai/ha Postemergence): 70 | Plant response rating, Velvetleaf ([7]; 31 g ai/ha Preemergence): 0 | Plant response rating, Velvetleaf ([7]; 125 g ai/ha Postemergence): 90 | Plant response rating, Velvetleaf ([7]; 125 g ai/ha Preemergence): 0 | Plant response rating, Wheat ([8]; 31 g ai/ha Postemergence): 0 | Plant response rating, Wheat ([8]; 31 g ai/ha Preemergence): 0 | Plant response rating, Wheat ([8]; 125 g ai/ha Postemergence): 10 | Plant response rating, Wheat ([8]; 125 g ai/ha Preemergence): 0 | Plant response rating, Foxtail, Giant ([9]; 31 g ai/ha Postemergence): 0 | Plant response rating, Foxtail, Giant ([9]; 31 g ai/ha Preemergence): 0 | Plant response rating, Foxtail, Giant ([9]; 125 g ai/ha Postemergence): 0 | Plant response rating, Foxtail, Giant ([9]; 125 g ai/ha Preemergence): 0 | Plant response rating, Rice (rice (Oryza sativa); 31 g ai/ha Flood): 0 | Plant response rating, Rice (rice (Oryza sativa); 62 g ai/ha Flood): 0 | Plant response rating, Rice (rice (Oryza sativa); 125 g ai/ha Flood): 15 | Plant response rating, Rice (rice (Oryza sativa); 250 g ai/ha Flood): 60 | Plant response rating, Barnyardgrass ([10]; 31 g ai/ha Flood): 0 | Plant response rating, Barnyardgrass ([10]; 62 g ai/ha Flood): 0 | Plant response rating, Barnyardgrass ([10]; 125 g ai/ha Flood): 0 | Plant response rating, Barnyardgrass ([10]; 250 g ai/ha Flood): 15
